# Source: ChEMBL document CHEMBL1944551, “An integrated computational workflow for efficient and quantitative modeling of renin inhibitors” (Bioorg Med Chem, 2012)
# Assay: physchem
# Conditions: octanol/buffer
row,SMILES,logP
1,COc1c(CN(C(=O)[C@H]2CNCC(=O)N2c2ccc(OCCOc3c(Cl)cc(C)cc3Cl)nc2)C2CC2)ccnc1C,3.39
2,O=C([C@H]1CNCC(=O)N1c1ccc(CCCOc2cccc(Cl)c2)cc1)N(Cc1ccc(Cl)cc1)C1CC1,5.91
3,COC(=O)NCc1ccc(Cl)c(CN(C(=O)[C@H]2CNCC(=O)N2c2ccc(COC(=O)c3ccccc3)cc2)C2CC2)c1,4.48
4,O=C(CC(F)(F)F)NCc1ccc(Cl)c(CN(C(=O)[C@H]2CNCC(=O)N2c2ccc(COC(=O)c3ccccc3)cc2)C2CC2)c1,4.92
5,CN(CCc1ccccc1)C(=O)[C@H]1CNCC(=O)N1c1ccc(CCCOc2cccc(Cl)c2)cc1,4.75
6,CC(C)(C)OCC(=O)NCCc1ccc(Cl)c(CN(C(=O)[C@H]2CNCC(=O)N2c2ccc(OCCCOCc3ccccc3)cc2)C2CC2)c1,5.66
7,O=C([C@H]1CNCC(=O)N1c1ccc(CCCOc2c(F)ccc(F)c2F)cc1)N(Cc1ccccc1Cl)C1CC1,5.73
8,CN(Cc1ccccc1)C(=O)[C@H]1CNCC(=O)N1c1ccc(OCCCOCc2ccccc2)cc1,3.86
9,CN(CCCc1ccccc1)C(=O)[C@H]1CNCC(=O)N1c1ccc(OCCCOCc2ccccc2)cc1,4.39
10,COCCCc1cc(CN(C(=O)[C@H]2CNCC(=O)N2c2ccc(CCCOc3c(F)ccc(F)c3F)cc2)C2CC2)c(Cl)cn1,5.11
11,CCNCCc1ccc(Cl)c(CN(C(=O)[C@H]2CNCC(=O)N2c2ccc(OCCCOCc3ccccc3OC)cc2)C2CC2)c1,5.31
12,COc1ccccc1COCCCOc1ncc(N2C(=O)CNC[C@@H]2C(=O)N(Cc2cccc(Cl)c2Cl)C2CC2)cn1,3.64
13,CNC(=O)OCc1ccc(Cl)c(CN(C(=O)[C@H]2CNCC(=O)N2c2ccc(OCCOc3c(Cl)cc(C)cc3Cl)cc2)C2CC2)c1,5.58
14,COc1ccccc1COCCCOc1ncc(N2C(=O)CNC[C@@H]2C(=O)N(Cc2cccc(C)c2C)C2CC2)cn1,3.05
15,CCC(=O)NCc1ccc(Cl)c(CN(C(=O)[C@H]2CNCC(=O)N2c2ccc(OCCCOCc3ccccc3OC)cc2)C2CC2)c1,5
16,COC(=O)NCCc1ccc(Cl)c(CN(C(=O)[C@H]2CNCC(=O)N2c2ccc(OCCCOCc3ccccc3)cc2)C2CC2)c1,4.94
17,Cc1cc(Cl)c(OCCOc2ccc(N3C(=O)CNC[C@@H]3C(=O)N(Cc3cc(CC(=O)NC4CC4)ccc3Cl)C3CC3)cn2)c(Cl)c1,5.08
18,COCCCc1cc(CN(C(=O)[C@H]2CNCC(=O)N2c2ccc(OCCCOCc3ccccc3)cc2)C2CC2)c(Cl)cn1,4.49
19,CCC(=O)NCc1ccc(Cl)c(CN(C(=O)[C@H]2CNCC(=O)N2c2ccc(OCCOc3c(Cl)cc(C)cc3Cl)cc2)C2CC2)c1,5.77
20,COc1ccccc1COCCCOc1ncc(N2C(=O)CNC[C@@H]2C(=O)N(Cc2cc(CCNC(=O)COC(C)(C)C)ccc2Cl)C2CC2)cn1,3.6
21,Cc1cc(Cl)c(OCCOc2ccc(N3C(=O)CNC[C@@H]3C(=O)N(Cc3cc(CNCCF)ccc3Cl)C3CC3)cn2)c(Cl)c1,4.94
22,CCC(=O)NCc1ccc(Cl)c(CN(C(=O)[C@H]2CNCC(=O)N2c2ccc(OCCCOCc3ccccc3)cc2)C2CC2)c1,5.04
23,O=C([C@H]1CNCC(=O)N1c1ccc(CCCOc2cccc(Cl)c2)cc1)N(Cc1cc(CCNC2CC2)ccc1Cl)C1CC1,6.46
24,COC(=O)NCCc1ccc(Cl)c(CN(C(=O)[C@H]2CNCC(=O)N2c2ccc(OCCOc3c(Cl)cc(C)cc3Cl)nc2)C2CC2)c1,4.84
25,COc1ccccc1COCCCOc1ccc(N2C(=O)CNC[C@@H]2C(=O)NCc2ccccc2Cl)cc1,4.21

row,SMILES,logP
1,COc1ccccc1COCCCOc1ncc(N2C(=O)CNC[C@@H]2C(=O)N(Cc2cc(CNC(=O)C3CC3)ccc2Cl)C2CC2)cn1,2.86
2,CN(Cc1ccccc1Cl)C(=O)[C@H]1CNCC(=O)N1c1ccc(CCCOc2cccc(Cl)c2)cc1,5.25
3,COCCCc1cc(CN(C(=O)[C@H]2CNCC(=O)N2c2ccc(COC(=O)c3ccccc3)cc2)C2CC2)c(Cl)cn1,4.11
4,CNC(=O)OCCc1ccc(Cl)c(CN(C(=O)[C@H]2CNCC(=O)N2c2ccc(CCCOc3cccc(Cl)c3)cc2)C2CC2)c1,5.74
5,COc1ccccc1COCCCOc1ccc(N2C(=O)CNC[C@@H]2C(=O)N(Cc2ccnc(C)c2OC)C2CC2)cc1,3.45
6,Cc1cc(Cl)c(OCCOc2ccc(N3C(=O)CNC[C@@H]3C(=O)N(Cc3cccc(Cl)c3)C3CC3)cc2)c(Cl)c1,5.87
7,Cc1cccc(CN(C(=O)[C@H]2CNCC(=O)N2c2ccc(OCCCOCc3ccccc3)cc2)C2CC2)c1C,5.11
8,O=C(NCc1ccccc1Cl)[C@H]1CNCC(=O)N1c1ccc(CCCOc2c(F)ccc(F)c2F)cc1,4.88
9,Cc1ccccc1Cc1c(C(=O)N2CCNCC2)c2ccccc2n1-c1ccsc1,5.02
10,O=C([C@H]1CNCC(=O)N1c1ccc(OCCCOCc2ccccc2)cc1)N(Cc1cc(CCNC2CC2)ccc1Cl)C1CC1,5.66
11,CNC(=O)Cc1ccc(Cl)c(CN(C(=O)[C@H]2CNCC(=O)N2c2ccc(OCCCOCc3ccccc3OC)cc2)C2CC2)c1,4.48
12,CC(=O)NCc1ccc(Cl)c(CN(C(=O)[C@H]2CNCC(=O)N2c2ccc(CCCOc3c(F)ccc(F)c3F)cc2)C2CC2)c1,5.19
13,CNCc1ccc(Cl)c(CN(C(=O)[C@H]2CNCC(=O)N2c2ccc(OCCCOCc3ccccc3OC)cc2)C2CC2)c1,4.88
14,Cc1cc(Cl)c(OCCOc2ccc(N3C(=O)CNC[C@@H]3C(=O)N(Cc3ccc(Cl)cc3)C3CC3)cc2)c(Cl)c1,5.83
15,COC(=O)NCc1ccc(Cl)c(CN(C(=O)[C@H]2CNCC(=O)N2c2ccc(OCCOc3c(Cl)cc(C)cc3Cl)nc2)C2CC2)c1,4.75
16,O=C([C@H]1CNCC(=O)N1c1ccc(CCCOc2c(F)ccc(F)c2F)cc1)N(Cc1cc(CCNC2CC2)ccc1Cl)C1CC1,6.29
17,COCCCc1ccc(Cl)c(CN(C(=O)[C@H]2CNCC(=O)N2c2ccc(CCCOc3c(F)ccc(F)c3F)cc2)C2CC2)c1,6.39
18,COc1ccccc1COCCCOc1ncc(N2C(=O)CNC[C@@H]2C(=O)N(Cc2cc(CCNC(=O)CC(F)(F)F)ccc2Cl)C2CC2)cn1,3.32
19,O=C(CC(F)(F)F)NCc1ccc(Cl)c(CN(C(=O)[C@H]2CNCC(=O)N2c2ccc(CCCOc3cccc(Cl)c3)cc2)C2CC2)c1,6.09
20,CCNC(=O)Cc1ccc(Cl)c(CN(C(=O)[C@H]2CNCC(=O)N2c2ccc(OCCOc3c(Cl)cc(C)cc3Cl)nc2)C2CC2)c1,4.77
21,O=C([C@H]1CNCC(=O)N1c1ccc(OCCCOCc2ccccc2)cc1)N(Cc1cccc(Cl)c1Cl)C1CC1,5.7
22,O=C(OCc1ccc(N2C(=O)CNC[C@@H]2C(=O)N(Cc2cc(CCNC3CC3)ccc2Cl)C2CC2)cc1)c1ccccc1,5.29
23,CNC(=O)CCc1ccc(Cl)c(CN(C(=O)[C@H]2CNCC(=O)N2c2ccc(OCCOc3c(Cl)cc(C)cc3Cl)cc2)C2CC2)c1,5.34
24,COc1ccccc1COCCCOc1ncc(N2C(=O)CNC[C@@H]2C(=O)N(Cc2ccc(Cl)cc2)C2CC2)cn1,3.05
25,Cc1cc(Cl)c(OCCOc2ccc(N3C(=O)CNC[C@@H]3C(=O)N(Cc3cc(CNCC(F)F)ccc3Cl)C3CC3)cn2)c(Cl)c1,5.24

row,SMILES,logP
1,Cc1cc(Cl)c(OCCOc2ccc(N3C(=O)CNC[C@@H]3C(=O)N(C)CCCc3ccccc3)cc2)c(Cl)c1,5.12
2,COc1ccccc1COCCCOc1ccc(N2C(=O)CNC[C@@H]2C(=O)N(Cc2cc(CNC(C)=O)ccc2Cl)C2CC2)cc1,4.52
3,Cc1cccc(CN(C(=O)[C@H]2CNCC(=O)N2c2ccc(COC(=O)c3ccccc3)cc2)C2CC2)c1C,4.73
4,Cc1cc(Cl)c(OCCOc2ccc(N3C(=O)CNC[C@@H]3C(=O)N(Cc3cc(CCNC4CC4)ccc3Cl)C3CC3)cc2)c(Cl)c1,6.39
5,COc1c(CN(C(=O)[C@H]2CNCC(=O)N2c2ccc(COC(=O)c3ccccc3)cc2)C2CC2)ccnc1C,3.12
6,Cc1cc(Cl)c(OCCOc2ccc(N3C(=O)CNC[C@@H]3C(=O)NCc3ccccc3)cn2)c(Cl)c1,3.56
7,COc1ccccc1COCCCOc1ccc(N2C(=O)CNC[C@@H]2C(=O)N(Cc2cccc(OC)c2C)C2CC2)cc1,4.72
8,CCC(=O)NCc1ccc(Cl)c(CN(C(=O)[C@H]2CNCC(=O)N2c2ccc(COC(=O)c3ccccc3)cc2)C2CC2)c1,4.67
9,CCC(=O)NCc1ccc(Cl)c(CN(C(=O)[C@H]2CNCC(=O)N2c2cnc(OCCCOCc3ccccc3OC)nc2)C2CC2)c1,2.98
10,CCNCCc1ccc(Cl)c(CN(C(=O)[C@H]2CNCC(=O)N2c2ccc(OCCCOCc3ccccc3)cc2)C2CC2)c1,5.35
11,Cc1cc(Cl)c(OCCOc2ccc(N3C(=O)CNC[C@@H]3C(=O)N(Cc3ccc(Cl)cc3)C3CC3)cn2)c(Cl)c1,5.01
12,COc1cccc(CN(C(=O)[C@H]2CNCC(=O)N2c2ccc(CCCOc3c(F)ccc(F)c3F)cc2)C2CC2)c1C,5.39
13,CNCc1ccc(Cl)c(CN(C(=O)[C@H]2CNCC(=O)N2c2ccc(OCCCOCc3ccccc3)cc2)C2CC2)c1,4.92
14,O=C(OCc1ccc(N2C(=O)CNC[C@@H]2C(=O)NCc2ccccc2Cl)cc1)c1ccccc1,3.88
15,CNCc1ccc(Cl)c(CN(C(=O)[C@H]2CNCC(=O)N2c2ccc(COC(=O)c3ccccc3)cc2)C2CC2)c1,4.55
16,Cc1cc(Cl)c(OCCOc2ccc(N3C(=O)CNC[C@@H]3C(=O)N(C)CCCc3ccccc3)cn2)c(Cl)c1,4.29
17,CNCCc1ccc(Cl)c(CN(C(=O)[C@H]2CNCC(=O)N2c2ccc(CCCOc3c(F)ccc(F)c3F)cc2)C2CC2)c1,5.63
18,COc1ccccc1COCCCOc1ncc(N2C(=O)CNC[C@@H]2C(=O)N(Cc2ccnc(C)c2OC)C2CC2)cn1,1.44
19,CCNC(=O)Cc1ccc(Cl)c(CN(C(=O)[C@H]2CNCC(=O)N2c2ccc(COC(=O)c3ccccc3)cc2)C2CC2)c1,4.49
20,COc1ccccc1COCCCOc1ncc(N2C(=O)CNC[C@@H]2C(=O)N(C)Cc2ccccc2Cl)cn1,2.4
21,CCNCc1ccc(Cl)c(CN(C(=O)[C@H]2CNCC(=O)N2c2cnc(OCCCOCc3ccccc3OC)nc2)C2CC2)c1,3.21
22,COCCCc1ccc(Cl)c(CN(C(=O)[C@H]2CNCC(=O)N2c2ccc(CCCOc3cccc(Cl)c3)cc2)C2CC2)c1,6.56
23,Cc1cc(Cl)c(OCCOc2ccc(N3C(=O)CNC[C@@H]3C(=O)N(Cc3cccc(C)c3C)C3CC3)cc2)c(Cl)c1,5.83
24,CN(Cc1ccccc1Cl)C(=O)[C@H]1CNCC(=O)N1c1ccc(CCCOc2c(F)ccc(F)c2F)cc1,5.07
25,Cc1cc(Cl)c(OCCOc2ccc(N3C(=O)CNC[C@@H]3C(=O)N(Cc3cc(CCNCC(F)F)ccc3Cl)C3CC3)cc2)c(Cl)c1,6.15

# Same assay, conditions: octanol/water
row,SMILES,logP
1,COc1ccccc1COCCCOc1ncc(N2C(=O)CNC[C@@H]2C(=O)NCc2ccccc2Cl)cn1,2.2
